For this experiment, the system named is HCV RNA replication (replicon cell lines Huh-7, 5.2 and ET). In words: Cell-Based Luciferase Reporter HCV RNA Replication Assay. Conditions: Huh-7, 5.2 or ET replicon cells, luciferase counts after 4 days incubation, read-out: IC50.

Structures can show the parent of a compound that is named as a salt. Where two headings read alike, the source gives them in different places.

With `COC1CCC(N(C(=O)C2CCC(C)CC2)c2cc(C3CCCCC3)sc2C(=O)O)CC1` (stereo not drawn) [Compound 112, 5-cyclohexyl-3-[(4-trans-methoxy-cyclohexyl)-(4-trans-methyl-cyclohexanecarbonyl)-amino]-thiophene-2-carboxylic acid], for the setting “Hepatitis C virus, Huh-7, 96 h”, the IC50 – broadly, the concentration at which inhibition is half-maximal – is less than 5 µM.

Regarding `COCOC1CCC(N(C(=O)C2CCC(C)CC2)c2cc(C3CCC(C)(C)CC3)sc2C(=O)O)CC1` (stereo not drawn) [Compound 116, 5-(4,4-dimethyl-cyclohexyl)-3-[(4-trans-methoxymethoxy-cyclohexyl)-(4-trans-methyl-cyclohexanecarbonyl)-amino]-thiophene-2-carboxylic acid], the half-maximal inhibitory concentration (IC50) (Hepatitis C virus, Huh-7, 96 h) was less than 5 µM.

Take `C[C@H]1CC[C@H](C(=O)N(c2cc(C3=CCCCC3)sc2C(=O)O)[C@H]2CC[C@H](C)CC2)CC1` [Compound 52, 5-cyclohex-1-enyl-3-[(trans-4-methyl-cyclohexanecarbonyl)-(trans-4-methyl-cyclohexyl)-amino]-thiophene-2-carboxylic acid]: the IC50 (Hepatitis C virus, Huh-7, 96 h) is less than 5 µM.

Turning to `CCC(=O)N(C)C1CCC(N(c2cc(C3=CCCCC3)sc2C(=O)O)C(=O)[C@H]2CC[C@H](C)CC2)CC1` (relative stereo) [Compound 140, 5-cyclohex-1-enyl-3-{(trans-4-methyl-cyclohexanecarbonyl)-[4-(methyl-propionyl-amino)-cyclohexyl]-amino}-thiophene-2-carboxylic acid], under “Hepatitis C virus, Huh-7, 96 h”, the IC50 was less than 5 µM.

Turning to `CC1CCC(C(=O)N(c2cc(C3=CCCCC3)sc2C(=O)O)C2CCC(C)(C#N)CC2)CC1` (stereo not drawn) [Compound 106, 3-[(trans-4-cyano-4-methyl-cyclohexyl)-(trans-4-methylcyclohexanecarbonyl)-amino]-5-cyclohex-1-enyl-thiophene-2-carboxylic acid], the half-inhibitory concentration (IC50) was less than 5 µM.

For `CC1=CCCCC1c1cc(N(C(=O)C2CCC(C)CC2)C2CCC(=O)CC2)c(C(=O)O)s1` (stereo not drawn) [Compound 58, RS-3-[(4-trans-methyl-cyclohexanecarbonyl)-(4-oxo-cyclohexyl)-amino]-5-(2-methyl-cyclohex-2-enyl)-thiophene-2-carboxylic acid], for the setting “Hepatitis C virus, Huh-7, 96 h”, the 50% inhibitory concentration (IC50) lay in the range of 5 to 25 µM.

As to `CC1CCC(C(=O)N(c2cc(C3CCC(C)(C)CC3)sc2C(=O)O)C2CCC(n3cncn3)CC2)CC1` (stereo not drawn) [Compound 118, 5-(4,4-dimethyl-cyclohexyl)-3-[(trans-4-methyl-cyclohexanecarbonyl)-(trans-4-[1,2,4]triazol-1-cyclohexyl)-amino]-thiophene-2-carboxylic acid; hydrochloride], the IC50 (Hepatitis C virus, Huh-7, 96 h) is less than 5 µM.

Turning to `C[C@H]1CC[C@H](C(=O)N(c2cc(C3=CCCCCC3)sc2C(=O)O)[C@H]2CC[C@H](O)CC2)CC1` [Compound 5, 5-Cyclohept-1-enyl-3-[(trans-4-hydroxy-cyclohexyl)-(trans-4-methyl-cyclohexanecarbonyl)-amino]-thiophene-2-carboxylic acid], the half-maximal inhibitory concentration (IC50) (Hepatitis C virus, Huh-7, 96 h) was less than 5 µM.

In the case of `CN1C(=O)N(C)C2(CCC(N(c3cc(C4CCC(C)(C)CC4)sc3C(=O)O)C(=O)[C@H]3CC[C@H](C)CC3)CC2)C1=O` (relative stereo) [Compound 79, 5-(4,4-dimethyl-cyclohexyl)-3-[(1,3-dimethyl-2,4-dioxo-1,3-diaza-spiro[4.5]dec-8-yl)-(trans-4-methyl-cyclohexanecarbonyl)-amino]-thiophene-2-carboxylic acid], the concentration for half-maximal inhibition (IC50) (Hepatitis C virus, Huh-7, 96 h) is less than 5 µM.

Turning to `CC1CCC(C(=O)N(c2cc(C3=CCCCC3)sc2C(=O)O)C2CCC3(CC2)CN(C)C(=O)N3C)CC1` (stereo not drawn) [Compound 74, 5-cyclohex-1-enyl-3-[trans-(1,3-dimethyl-2-oxo-1,3-diaza-spiro[4.5]dec-8-yl)-(trans-4-methyl-cyclohexanecarbonyl)-amino]-thiophene-2-carboxylic acid], the IC50 was less than 5 µM.

Turning to `C[C@H]1CC[C@H](C(=O)N(c2cc([C@H]3CC[C@H](C)CC3)sc2C(=O)O)[C@H]2CC[C@H](O)CC2)CC1` [Compound 77, 3-[(trans-4-hydroxy-cyclohexyl)-(trans-4-methyl-cyclohexanecarbonyl)-amino]-5-(trans-4-methyl-cyclohexyl)-thiophene-2-carboxylic acid], the 50% inhibitory concentration (IC50) (Hepatitis C virus, Huh-7, 96 h) is less than 5 µM.

For `CC(C)C(=O)N1CCC(N(c2cc(C3=CCCCC3)sc2C(=O)O)C(=O)[C@H]2CC[C@H](C)CC2)CC1` [Compound 141, 5-Cyclohex-1-enyl-3-[(1-isobutyryl-piperidin-4-yl)-(trans-4-methylcyclohexanecarbonyl)-amino]-thiophene-2-carboxylic acid], the IC50 (Hepatitis C virus, Huh-7, 96 h) is less than 5 µM.

On to `CN1C(=O)N(C)C2(CCC(N(c3cc(C4=CCCCC4)sc3C(=O)O)C(=O)[C@H]3CC[C@H](C)CC3)CC2)C1=O` (relative stereo) [Compound 32, 5-cyclohex-1-enyl-3-[(1,3-dimethyl-2,4-dioxo-1,3-diaza-spiro[4.5]dec-8-yl)-(trans-4-methyl-cyclohexanecarbonyl)-amino]-thiophene-2-carboxylic acid], for which the IC50 (Hepatitis C virus, Huh-7, 96 h) was less than 5 µM.

Values taken from patent US8674118B2, “Compounds and methods for the treatment or prevention of flavivirus infections” (priority 2005, dated 2014).
